Holding throughout (experiment): Test D pre-/postemergence herbicide test
In assay [1] the test system is galium. It is filed as in vivo, Galium aparine. As to conditions: for Plant response rating: Galium, scale 0 to 100; for Plant response rating, Galium: scale 0 to 100 (0 no effect, 100 complete control). From the text:
(§1) Seeds of plant species selected from bluegrass (annual bluegrass, Poa annua), blackgrass (Alopecurus myosuroides), canarygrass (littleseed canarygrass, Phalaris minor), chickweed (common chickweed, Stellaria media), galium (catchweed bedstraw, Galium aparine), bromegrass, downy (downy bromegrass, Bromus tectorum), field poppy (Papaver rhoeas), field violet (Viola arvensis), foxtail, green (green foxtail, Setaria viridis), deadnettle (henbit deadnettle, Lamium amplexicaule), ryegrass, Italian (Italian ryegrass, Lolium multiflorum), kochia (Kochia scoparia), lambsquarters (Chenopodium album), oilseed rape (Brassica napus), pigweed (Amaranthus retroflexus), chamomile (scentless chamomile, Matricaria inodora), Russian thistle (Salsola kali), speedwell (bird's-eye speedwell, Veronica persica), barley, spring (spring barley, Hordeum vulgare), wheat, spring (spring wheat, Triticum aestivum), buckwheat, wild (wild buckwheat, Polygonum convolvulus), mustard, wild (wild mustard, Sinapis arvensis), oat, wild (wild oat, Avena fatua), radish, wild (wild radish, Raphanus raphanistrum), […]), barley, winter (winter barley, Hordeum vulgare), and wheat, winter (winter wheat, Triticum aestivum) were planted into a silt loam soil and treated preemergence with test chemicals formulated in a non-phytotoxic solvent mixture which included a surfactant. At the same time, these species were planted in pots containing Redi-Earth® planting medium (Scotts Company, 14111 Scottslawn Road, Marysville, Ohio 43041) comprising spaghnum peat moss, vermiculite, wetting agent and starter nutrients and treated with postemergence applications of the test chemicals formulated in the same manner. Plants ranged in height from 2 to 18 cm (1- to 4-leaf stage). Treated plants and controls were maintained in a controlled growth environment for 7 to 21 days after which time all species were compared to controls and visually evaluated. Plant response ratings, summarized in Table D, are based on a scale of 0 to 100 where 0 is no effect and 100 is complete control. A dash (-) response means no test result.

The subject of assay [2] is buckwheat, wild. The assay is classed as in vivo, Polygonum convolvulus. As to conditions: for Plant response rating: Buckwheat, Wild, scale 0 to 100; for Plant response rating, Buckwheat, Wild: scale 0 to 100 (0 no effect, 100 complete control).
Description: as §1

Assay [3] concerns oat, wild. The assay is classed as in vivo, Avena fatua. The following applies: for Plant response rating: Postemergence, Oat, Wild, scale 0 to 100; for Plant response rating, Oat, Wild: Preemergence, scale 0 to 100 (0 no effect, 100 complete control).
Description: as §1

Experimental findings from patent US10294202B2, “Pyrrolidinones as herbicides” (FMC Corporation, priority 2013, dated 2019) are described below.

In the case of `O=C1NCC(c2ccc(F)c(F)c2)C1C(=O)Nc1ccccc1C(F)(F)F` (racemic) [Compound 6], the Plant response rating in assay [1] (Postemergence, 16 g ai/ha) amounted to 0; in assay [1] (Postemergence, 31 g ai/ha), 0; in assay [1] (Postemergence, 62 g ai/ha), 0; in assay [1] (Postemergence, 125 g ai/ha), 0; in assay [1] (Postemergence, 250 g ai/ha), 0; in assay [1] (Preemergence, 125 g ai/ha), 100. In addition, the Plant response rating in assay [1] (Preemergence, 250 g ai/ha) came out at 100; in assay [2] (Postemergence, 16 g ai/ha), 0; in assay [2] (Postemergence, 31 g ai/ha), 0; in assay [2] (Postemergence, 62 g ai/ha), 0; in assay [2] (Postemergence, 125 g ai/ha) it was 0; in assay [2] (Postemergence, 250 g ai/ha) it was 10. Also, the Plant response rating was found to be 0 in assay [2] (Preemergence, 125 g ai/ha); 0 in assay [2] (Preemergence, 250 g ai/ha); 0 in assay [3] (16 g ai/ha); 0 in assay [3] (31 g ai/ha); 0 in assay [3] (62 g ai/ha); 0 in assay [3] (125 g ai/ha). This compound also returned a Plant response rating in assay [3] (250 g ai/ha) of 5. Moreover, the “Plant response rating, Galium” value is listed as 50 in assay [1] (Preemergence, 62 g ai/ha); 0 in assay [1] (Preemergence, 16 g ai/ha); 0 in assay [1] (Preemergence, 31 g ai/ha). Further, the “Plant response rating, Buckwheat, Wild” value in assay [2] (Preemergence, 62 g ai/ha) amounted to 0; in assay [2] (Preemergence, 16 g ai/ha), 0; in assay [2] (Preemergence, 31 g ai/ha) it was 0. The “Plant response rating, Oat, Wild” value in assay [3] (62 g ai/ha), in assay [3] (125 g ai/ha), in assay [3] (16 g ai/ha), in assay [3] (31 g ai/ha) and in assay [3] (250 g ai/ha) was 0 each time.

Take `O=C1NCC(c2ccc(F)c(C(F)(F)F)c2)C1C(=O)Nc1cccc(F)c1F` (racemic) [Compound 77]: the “Plant response rating, Galium” value in assay [1] (Preemergence, 62 g ai/ha) is recorded as 55; in assay [1] (Preemergence, 31 g ai/ha) it was 35. For the same compound, the Plant response rating in assay [1] (Preemergence, 125 g ai/ha) amounted to 85; in assay [1] (Preemergence, 250 g ai/ha), 85; in assay [2] (Preemergence, 125 g ai/ha) it was 55; in assay [2] (Preemergence, 250 g ai/ha), 55. Besides, the “Plant response rating, Buckwheat, Wild” value stood at 75 in assay [2] (Preemergence, 62 g ai/ha) and 0 in assay [2] (Preemergence, 31 g ai/ha). In addition, the “Plant response rating, Oat, Wild” value in assay [3] (62 g ai/ha) is 15; in assay [3] (125 g ai/ha), 20; in assay [3] (31 g ai/ha), 10; in assay [3] (250 g ai/ha), 45.

As for `O=C1NCC(c2cc(F)c(F)cc2F)C1C(=O)Nc1cccc(F)c1F` (centres unmarked) [Compound 50], the Plant response rating in assay [1] (Postemergence, 16 g ai/ha) came to 0; in assay [1] (Postemergence, 31 g ai/ha), 0; in assay [1] (Postemergence, 62 g ai/ha), 0; in assay [1] (Postemergence, 125 g ai/ha), 0; in assay [1] (Preemergence, 125 g ai/ha) it was 0; in assay [2] (Postemergence, 16 g ai/ha), 10. The Plant response rating in assay [2] (Postemergence, 31 g ai/ha) was determined as 10; in assay [2] (Postemergence, 62 g ai/ha), 10; in assay [2] (Postemergence, 125 g ai/ha), 10; in assay [3] (16 g ai/ha), 0; in assay [3] (31 g ai/ha) it was 0; in assay [3] (62 g ai/ha) it was 0. The same compound registered a Plant response rating in assay [3] (125 g ai/ha) of 0. For the same compound, the “Plant response rating, Galium” value in assay [1] (Preemergence, 62 g ai/ha) worked out at 0; in assay [1] (Preemergence, 16 g ai/ha), 0; in assay [1] (Preemergence, 31 g ai/ha), 0. For the same compound, the “Plant response rating, Buckwheat, Wild” value in assay [2] (Preemergence, 62 g ai/ha) came to 0; in assay [2] (Preemergence, 16 g ai/ha), 0; in assay [2] (Preemergence, 31 g ai/ha), 0. The “Plant response rating, Oat, Wild” value in assay [3] (62 g ai/ha), in assay [3] (125 g ai/ha), in assay [3] (16 g ai/ha) and in assay [3] (31 g ai/ha) was 0 throughout.

With `O=C1NCC(c2ccc(Cl)c(F)c2)C1C(=O)Nc1cccc(F)c1F` (centres unmarked) [Compound 52], the Plant response rating turned out to be 0 in assay [1] (Postemergence, 16 g ai/ha); 0 in assay [1] (Postemergence, 31 g ai/ha); 0 in assay [1] (Postemergence, 62 g ai/ha); 25 in assay [1] (Postemergence, 125 g ai/ha); 35 in assay [1] (Postemergence, 250 g ai/ha); 0 in assay [1] (Preemergence, 125 g ai/ha). In addition, the Plant response rating in assay [1] (Preemergence, 250 g ai/ha) was determined as 20; in assay [2] (Postemergence, 16 g ai/ha), 0; in assay [2] (Postemergence, 31 g ai/ha), 0; in assay [2] (Postemergence, 62 g ai/ha), 0; in assay [2] (Postemergence, 125 g ai/ha), 0; in assay [2] (Postemergence, 250 g ai/ha), 0. Further, the Plant response rating in assay [2] (Preemergence, 125 g ai/ha) is given as 10; in assay [2] (Preemergence, 250 g ai/ha), 10; in assay [3] (16 g ai/ha), 0; in assay [3] (31 g ai/ha) it was 0; in assay [3] (62 g ai/ha), 0; in assay [3] (125 g ai/ha), 0. In addition, in assay [3] (250 g ai/ha), the Plant response rating was found to be 0. Also, the “Plant response rating, Galium” value in assay [1] (Preemergence, 62 g ai/ha) amounted to 0; in assay [1] (Preemergence, 16 g ai/ha) it was 0; in assay [1] (Preemergence, 31 g ai/ha) it was 0. The “Plant response rating, Buckwheat, Wild” value in assay [2] (Preemergence, 62 g ai/ha) turned out to be 0; in assay [2] (Preemergence, 16 g ai/ha), 0; in assay [2] (Preemergence, 31 g ai/ha) it was 0. Further, the “Plant response rating, Oat, Wild” value in assay [3] (62 g ai/ha), in assay [3] (125 g ai/ha), in assay [3] (16 g ai/ha), in assay [3] (31 g ai/ha) and in assay [3] (250 g ai/ha) was 0 in each case.

Turning to `O=C1NCC(c2ccc(C(F)(F)F)cc2)C1C(=O)Nc1ccccc1F` (centres unmarked) [Compound 231], the Plant response rating in assay [1] (Postemergence, 31 g ai/ha) is recorded as 40; in assay [1] (Postemergence, 62 g ai/ha), 45; in assay [1] (Postemergence, 125 g ai/ha), 55; in assay [1] (Postemergence, 250 g ai/ha) it was 55; in assay [1] (Preemergence, 250 g ai/ha), 40; in assay [2] (Postemergence, 31 g ai/ha), 0. Also, the Plant response rating in assay [2] (Postemergence, 62 g ai/ha) is 0; in assay [2] (Postemergence, 125 g ai/ha) it was 0; in assay [2] (Postemergence, 250 g ai/ha), 0; in assay [2] (Preemergence, 250 g ai/ha), 10; in assay [3] (31 g ai/ha), 5; in assay [3] (62 g ai/ha), 10. Besides, the Plant response rating in assay [3] (125 g ai/ha) and in assay [3] (250 g ai/ha) was 10 each time. Further, the “Plant response rating, Galium” value in assay [1] (Preemergence, 62 g ai/ha) was 40; in assay [1] (Preemergence, 125 g ai/ha), 35; in assay [1] (Preemergence, 31 g ai/ha), 20. The “Plant response rating, Buckwheat, Wild” value in assay [2] (Preemergence, 62 g ai/ha) is 0; in assay [2] (Preemergence, 125 g ai/ha), 0; in assay [2] (Preemergence, 31 g ai/ha), 0. Besides, the “Plant response rating, Oat, Wild” value is recorded as 20 in assay [3] (62 g ai/ha), 25 in assay [3] (125 g ai/ha), 20 in assay [3] (31 g ai/ha) and 30 in assay [3] (250 g ai/ha).
